Source: US9963445B2, “Chemical compounds” (SYNGENTA PARTICIPATIONS AG, priority 2013, dated 2018)

Assays:
Format in all cases: in vivo
Amaranthus retroflexus [1] = test: Post-emergence herbicidal activity, glasshouse pot test; set-up: key: 0 = no damage to plant, 5 = total damage to plant; details: Application post-emergence, rate 1000 g/ha, evaluated after 13 days
Summary of the method: (§1)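 Test solution: technical active ingredient in acetone/water (50:50) containing 0.5% Tween 20, applied as an aqueous spray to 8-day-old plants. Evaluation at 13 days, 0–5 damage scale.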

Abutilon theophrasti [2] = test: as above; set-up: key: 0 = no damage to plant, 5 = total damage to plant; details: Application post-emergence, rate 1000 g/ha, evaluated after 13 days
Summary of the method: as §1

zea mays [3] = test: as above; set-up: key: 0 = no damage to plant, 5 = total damage to plant; details: Application post-emergence, rate 1000 g/ha, evaluated after 13 days
Summary of the method: as §1

Alopecurus myosuroides [4] = test: as above; set-up: key: 0 = no damage to plant, 5 = total damage to plant; details: Application post-emergence, rate 1000 g/ha, evaluated after 13 days
Summary of the method: as §1

Setaria faberi [5] = test: as above; set-up: key: 0 = no damage to plant, 5 = total damage to plant; details: Application post-emergence, rate 1000 g/ha, evaluated after 13 days
Summary of the method: as §1

Echinochloa crus-galli [6] = test: as above; set-up: key: 0 = no damage to plant, 5 = total damage to plant; details: Application post-emergence, rate 1000 g/ha, evaluated after 13 days
Summary of the method: as §1

Amaranthus retroflexus [7] = test: Pre-emergence herbicidal activity, glasshouse pot test; details: pre-emergence spray, rate 1000 g/ha, evaluated after 13 days, scale 0-5
Summary of the method: (§2)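 Damage score 0–5 (5 = total damage) read 13 d after spraying. Pots sown, sprayed pre-emergence at day 1 with aqueous spray from acetone/water 50:50 + 0.5% Tween 20 formulation; glasshouse 24/16 °C, 14 h light, 65% RH.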

Abutilon theophrasti [8] = test: as above; details: pre-emergence spray, rate 1000 g/ha, evaluated after 13 days, scale 0-5
Summary of the method: as §2

zea mays [9] = test: as above; details: pre-emergence spray, rate 1000 g/ha, evaluated after 13 days, scale 0-5
Summary of the method: as §2

Alopecurus myosuroides [10] = test: as above; details: pre-emergence spray, rate 1000 g/ha, evaluated after 13 days, scale 0-5
Summary of the method: as §2

Setaria faberi [11] = test: as above; details: pre-emergence spray, rate 1000 g/ha, evaluated after 13 days, scale 0-5
Summary of the method: as §2

Echinochloa crus-galli [12] = test: as above; details: pre-emergence spray, rate 1000 g/ha, evaluated after 13 days, scale 0-5
Summary of the method: as §2

SMILES	AMARE herbicidal damage score (Amaranthus retroflexus [1])	ABUTH herbicidal damage score (Abutilon theophrasti [2])	ZEAMX herbicidal damage score (zea mays [3])	ALOMY herbicidal damage score (Alopecurus myosuroides [4])	SETFA herbicidal damage score (Setaria faberi [5])	ECHCG herbicidal damage score (Echinochloa crus-galli [6])	AMARE damage score, application pre-emergence (Amaranthus retroflexus [7])	ABUTH damage score, application pre-emergence (Abutilon theophrasti [8])	ZEAMX damage score, application pre-emergence (zea mays [9])	ALOMY damage score, application pre-emergence (Alopecurus myosuroides [10])	SETFA damage score, application pre-emergence (Setaria faberi [11])	ECHCG damage score, application pre-emergence (Echinochloa crus-galli [12])
CCC(CNC(=O)c1cnc(N2C(=O)C(OC)=C(C)C2O)cc1C)C(F)(F)F (stereo not drawn) [AI37]	5	5	5	5	5	5	5	5	2	4	5	5
CC1=C(Cl)C(=O)N(c2cc(C(F)(F)F)cc(Cl)n2)C1O (stereo not drawn) [AF37]	0	2	1	4	4	4	0	0	0	3	1	0
CC1=C(Cl)C(=O)N(c2cc(C(C)C)c(C(=O)NC(C)(C)C)cn2)C1O (stereo not drawn) [AF103]	5	5	3	4	5	5	5	5	3	4	4	4
COC1=C(C)C(O)N(c2cc(C(F)(F)F)c(-c3cnc(OC)nc3)cn2)C1=O (stereo not drawn) [AI14]	5	5	3	4	5	5	5	1	1	2	3	2
COC1=C(C)C(O)N(c2cc(C(C)(C)F)c(Cl)nn2)C1=O (stereo not drawn) [BI14]	5	5	4	5	5	5	5	3	3	3	5	4
COC(=O)c1cnc(N2C(=O)C(Cl)=C(C)C2O)cc1C(F)(F)F (stereo not drawn) [AF42]	4	4	1	3	5	4	0	0	0	0	0	0
COc1ccnc(N2C(=O)C(Cl)=C(C)C2O)c1 (stereo not drawn) [AF44]	1	3	2	3	1	4	0	0	0	0	0	0
CC1=C(Cl)C(=O)N(c2cc(C(F)(F)F)c(C(=O)OC(C)C)cn2)C1O (stereo not drawn) [AF92]	5	5	4	4	5	5	4	2	3	4	5	3
COC1=C(OC)C(O)N(c2ccc(C(F)(F)F)nn2)C1=O (stereo not drawn) [BK2]	1	1	0	1	1	1	0	0	0	0	0	0
COC1=C(C)C(O)N(c2cc(C(F)(F)F)c(Br)cn2)C1=O (stereo not drawn) [AI2]	5	5	4	5	5	5	5	3	2	4	1	4
COC1=C(C)C(O)N(c2cc(C(C)(F)F)c(Cl)nn2)C1=O (stereo not drawn) [BI22]	5	5	3	5	5	5	5	4	3	4	4	5
COC1=C(OC)C(O)N(c2cc(F)ccn2)C1=O (stereo not drawn) [AK3]	4	5	4	4	5	5	5	5	2	2	3	4
